The subject of assay [1] is HIV replication in H9 lymphocytes. On the set-up: method as in PMID 15987189. Particulars: cited from earlier work.
The target of assay [2] is T1, HIV-1 PR (Human immunodeficiency virus type 1 group M subtype B, UniProt P04585).
T1 construct: 10.0, 4.0, 3.2 and 17.0 µg/mL against HIV-1 protease
Kind of assay: Fluorimetric HIV-1 protease inhibition assay. Type of assay: biochemical. The protocol:
(§1) The inhibitory activities against HIV-1, Cat L and Renin PRs were assayed by fluorimetric methods using our previously published protocols.

Assay [3] concerns the target Cat L PR (Homo sapiens, UniProt P07711). The experiment in a line: Fluorimetric cathepsin L protease inhibition assay. The assay is classed as biochemical. Particulars: read-out: Cat L PR Inhi% at 100.0 µg/mL. The protocol: as §1
Assay [4] has as its target T2, human renin (Homo sapiens, UniProt P00797).
T2 sequence (P00797 67-406): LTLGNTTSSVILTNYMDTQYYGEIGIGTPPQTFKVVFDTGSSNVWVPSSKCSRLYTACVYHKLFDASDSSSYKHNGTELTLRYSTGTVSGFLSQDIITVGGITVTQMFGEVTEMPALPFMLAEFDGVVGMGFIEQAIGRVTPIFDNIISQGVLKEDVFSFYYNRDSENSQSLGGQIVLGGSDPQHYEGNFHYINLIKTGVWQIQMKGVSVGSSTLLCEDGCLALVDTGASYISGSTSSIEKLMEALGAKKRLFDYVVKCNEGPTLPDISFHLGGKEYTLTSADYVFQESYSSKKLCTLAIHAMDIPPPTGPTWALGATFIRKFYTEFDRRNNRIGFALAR
The experiment in a line: Fluorimetric renin protease inhibition assay. The assay is classed as biochemical. Particulars: extracts, n = 3. Here is the method: as §1

The mark [5] stands for this setting: active compounds, n = 3, read-out: HIV-1 PR IC50 (converted).

Where two headings read alike, the source gives them in different places.

Cat L PR, sequence (P07711 114-333): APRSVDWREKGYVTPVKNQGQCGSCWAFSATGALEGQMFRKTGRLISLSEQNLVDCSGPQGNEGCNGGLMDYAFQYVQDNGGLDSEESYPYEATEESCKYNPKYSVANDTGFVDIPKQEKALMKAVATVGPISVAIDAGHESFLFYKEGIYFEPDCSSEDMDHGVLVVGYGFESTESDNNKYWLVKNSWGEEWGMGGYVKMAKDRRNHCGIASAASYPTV

As for `C=C[C@@]1(C)COC(=O)[C@]12O[C@]1(c3ccccc3)[C@H](C2=O)[C@H]2[C@H]([C@H](C)CCC=C(C)C)CC=C(C)[C@H]21` [Biyouyanagin A], the “therapeutic index (TI)” value in assay [1] was “higher than 31.3”.

Turning to `Oc1cc(O)c2c(c1)O[C@H](c1ccc(O)c(O)c1)[C@H](O)C2` [Epicatechin], the “HIV-1 PR Inhi% at 1000.0 µg/mL” value in assay [2] (n = 3) is 66.0 ± 3.79%. The IC50 (in general, the concentration that inhibits the measured activity by half) in assay [2] (setting [5]) is 2760 µM. In assay [3] (100.0 µg/mL, n = 3), the inhibition at 100 µg/mL is -17.7 ± 2.35%.

In assay [2], `O=C1C[C@@H](c2ccc(O)c(O)c2)Oc2cc(O)cc(O)c21` [Eriodictyol, Eriodicytiol] gave an IC50 of 659 µM. For the same compound, in assay [2] (n = 3), the “HIV-1 PR Inhi% at 1000.0 µg/mL” value is reported as 100.0 ± 4.98%. Also, in assay [3] (100.0 µg/mL, n = 3), the inhibition at 100 µg/mL is 14.3 ± 2.32%.

In assay [2], `Cc1cc(O)c2c(=O)c3c(O)cc(O)c4c5c(O)cc(O)c6c(=O)c7c(O)cc(C)c8c1c2c(c34)c(c78)c65` [Hypericin] gave an IC50 of 3.57 µM. The “HIV-1 PR Inhi% at 1000.0 µg/mL” value in assay [2] (n = 3) worked out at 100.0 ± 7.87%. In addition, in assay [3] (100.0 µg/mL, n = 3), the inhibition at 100 µg/mL stood at 79.4 ± 2.02%.

With `O=c1c(O[C@@H]2O[C@H](CO)[C@H](O)[C@H](O)[C@H]2O)c(-c2ccc(O)c(O)c2)oc2cc(O)cc(O)c12` [Hyperoside], inhibition in assay [2] was half-maximal at 84 µM (IC50). In assay [2] (n = 3), the “HIV-1 PR Inhi% at 1000.0 µg/mL” value is given as 72.6 ± 1.40%. Moreover, the inhibition at 100 µg/mL in assay [3] (100.0 µg/mL, n = 3) stood at 11.8 ± 2.56%.

In the case of `O=C(/C=C/c1ccc(O)cc1)c1c(O)cc(O)cc1O` [Naringenin chalcone], in assay [2] (n = 3), the “HIV-1 PR Inhi% at 1000.0 µg/mL” value was 100.0 ± 1.96%. The IC50 in assay [2] (setting [5]) is 121 µM. Besides, the inhibition at 100 µg/mL in assay [3] (100.0 µg/mL, n = 3) was 22.2 ± 6.77%.

Turning to `O=c1c(O)c(-c2ccc(O)c(O)c2)oc2cc(O)cc(O)c12` [Quercetin], in assay [2] (n = 3), the “HIV-1 PR Inhi% at 1000.0 µg/mL” value was determined as 50.3 ± 1.40%. The inhibition at 100 µg/mL in assay [3] (100.0 µg/mL, n = 3) is -3.67 ± 6.59%.

Consider `C[C@@H]1O[C@@H](Oc2c(-c3ccc(O)c(O)c3)oc3cc(O)cc(O)c3c2=O)[C@H](O)[C@H](O)[C@H]1O` [Quercitrin], for which, in assay [2] (n = 3), the “HIV-1 PR Inhi% at 1000.0 µg/mL” value amounted to 94.4 ± 7.86%. For the same compound, the IC50 in assay [2] (setting [5]) is 44.6 µM. The inhibition at 100 µg/mL in assay [3] was 16.3 ± 3.24%.

With `C[C@@H]1O[C@@H](OC[C@H]2O[C@@H](Oc3c(-c4ccc(O)c(O)c4)oc4cc(O)cc(O)c4c3=O)[C@H](O)[C@@H](O)[C@@H]2O)[C@H](O)[C@H](O)[C@H]1O` [Rutin], the “HIV-1 PR Inhi% at 1000.0 µg/mL” value in assay [2] (n = 3) was found to be 24.8 ± 3.85%. Besides, the inhibition at 100 µg/mL in assay [3] (100.0 µg/mL, n = 3) is -4.81 ± 3.8%.

Take `C[C@@H]1O[C@@H](Oc2cc(O)c3c(c2)O[C@H](c2ccc(O)c(O)c2)[C@@H](O)C3=O)[C@H](O)[C@H](O)[C@H]1O` [Taxifolin-7-O-rhamnoside]: the “HIV-1 PR Inhi% at 1000.0 µg/mL” value in assay [2] (n = 3) was 68.4 ± 5.45%. The concentration for half-maximal inhibition (IC50) in assay [2] (setting [5]) was 1220 µM. Moreover, in assay [3] (100.0 µg/mL, n = 3), the inhibition at 100 µg/mL was found to be 18.1 ± 0.95%.

Turning to Ac–HPFV–(Sta)–LF–NH2 [Renin inhibitor], the “IC50 Renin PR” value in assay [4] is 0.9 mg/L.

Source of the values: publication PMC9784874, “Inhibitors of HIV-1 and Cathepsin L Proteases Identified from the Insect Gall of Hypericum kouytchense” (Pharmaceuticals, 2022).
